Measurements taken from paper PMC5953424 (Nature chemical biology, 2014).

Assays:
[1] = Oral glucose tolerance test; assay type: in vivo, C57BL/6 mice; conditions: mice, oral gavage 1 h before dextrose 5 g/kg; listed as ARI-2243
Adverse effects in mice = assay type: in vivo
PME1 = molecular target: T1, PME1 (Homo sapiens, UniProt Q9Y570); assay: EnPlex assay; assay type: biochemical; conditions: FP-biotin 1 μM, <5 = >50% inhibition at lowest dose 5 nM
T1 sequence (Q9Y570 1-386): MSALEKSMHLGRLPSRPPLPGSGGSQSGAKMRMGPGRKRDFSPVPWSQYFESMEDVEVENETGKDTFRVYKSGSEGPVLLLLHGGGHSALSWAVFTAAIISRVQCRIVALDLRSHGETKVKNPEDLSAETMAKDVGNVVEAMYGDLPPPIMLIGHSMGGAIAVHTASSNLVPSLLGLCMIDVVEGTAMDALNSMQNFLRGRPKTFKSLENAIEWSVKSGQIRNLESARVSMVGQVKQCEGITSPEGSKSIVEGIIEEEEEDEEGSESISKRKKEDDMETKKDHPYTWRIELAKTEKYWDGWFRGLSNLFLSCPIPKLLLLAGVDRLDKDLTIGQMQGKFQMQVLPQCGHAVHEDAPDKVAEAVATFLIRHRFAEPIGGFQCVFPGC

Row | SMILES | Anti-hyperglycemic activity in oral glucose tolerance test [1] | Adverse effects in mice (Adverse effects in mice) | IC50 (PME1)
1 | CC(N)C(=S)N1CCCC1B(O)O (stereo not drawn) [Compound 24, Ala-boroPro thioxoamide] | highly effective and essentially equal anti-hyperglycemic glycemic activity | no significant adverse effects | –
2 | COC(=O)N1C(=O)[C@](c2ccccc2)(C2CCCC2)N1C(=O)OC [ABL127] | – | – | 12 nM
